Like-named read-outs stand apart in the source and are kept apart here.
How the values were obtained:
Salmonella TA98 = assay: Salmonella plate-incorporation mutagenicity assay, strain TA98, with S9 mix; format: cell-based; conditions: for Mutagenic potency, Revertants/µg ± S.E., TA98 / Mutagenicity call TA98: plate-incorporation, +S9
Salmonella TA100 = assay: Salmonella plate-incorporation mutagenicity assay, strain TA100; format: cell-based; conditions: for Mutagenic potency, Revertants/µg ± S.E., TA100 / Mutagenicity call TA100: plate-incorporation, +S9
Salmonella TA104 = assay: Salmonella plate-incorporation mutagenicity assay, strain TA104, with S9 mix; format: cell-based
strain TA100 = format: cell-based, Salmonella; conditions: TA100 liquid-suspension; for Rev/10^6 survivors: DMSO 0.8; for Percent survival: DMSO 100
[1] = test system: DNA from Salmonella TA100; assay: Stable DNA adducts by 32P-postlabeling in DNA of treated TA100; format: cell-based; conditions: DMSO 0.024 ± 0.000
[2] = test system: DNA from Salmonella TA100; assay: Abasic sites by aldehydic-site assay in DNA of treated TA100; format: cell-based; conditions: DMSO 5.9 ± 0.33
[3] = TA98 +S9, Test 1, 2 µg/plate, zero-dose 33/40/39
[4] = TA98 +S9, Test 1, 5 µg/plate, zero-dose 33/40/39
[5] = TA98 +S9, Test 1, 10 µg/plate, zero-dose 33/40/39
[6] = TA98 +S9, Test 1, 20 µg/plate, zero-dose 33/40/39
[7] = TA98 +S9, Test 1, 40 µg/plate, zero-dose 33/40/39
[8] = TA98 +S9, Test 1, 80 µg/plate, zero-dose 33/40/39
[9] = TA98 +S9, Test 2, 10 µg/plate, zero-dose 43/41/30
[10] = TA98 +S9, Test 3, 10 µg/plate, zero-dose 49/50/50
[11] = TA100 +S9, Test 1, 2 µg/plate, zero-dose 99/110/110
[12] = TA100 +S9, Test 1, 5 µg/plate, zero-dose 99/110/110
[13] = TA100 +S9, Test 1, 10 µg/plate, zero-dose 99/110/110
[14] = TA100 +S9, Test 1, 20 µg/plate, zero-dose 99/110/110
[15] = TA100 +S9, Test 1, 40 µg/plate, zero-dose 99/110/110
[16] = TA100 +S9, Test 1, 80 µg/plate, zero-dose 99/110/110
[17] = TA100 +S9, Test 2, 1 µg/plate, zero-dose 84/78/80
[18] = TA100 +S9, Test 2, 5 µg/plate, zero-dose 84/78/80
[19] = TA100 +S9, Test 3, 1 µg/plate, zero-dose 127/118/125
[20] = TA100 +S9, Test 3, 5 µg/plate, zero-dose 127/118/125
[21] = TA104 +S9, Test 2, 1 µg/plate, zero-dose 276/260/270
[22] = TA104 +S9, Test 2, 5 µg/plate, zero-dose 276/260/270
[23] = TA104 +S9, Test 3, 1 µg/plate, zero-dose 402/395/336
[24] = TA104 +S9, Test 3, 5 µg/plate, zero-dose 402/395/336

O[C@@H]1C=Cc2c(ccc3ccc4sccc4c23)[C@H]1O (racemic) [P[3,4-b]T 8,9-diol, (±)-trans-8,9-Dihydrophenanthro[3,4-b]thiophene 8,9-diol]
Rev/plate (Salmonella TA98; [3]): 61 rev/plate | Rev/plate (Salmonella TA98; [4]): 87 rev/plate | Rev/plate (Salmonella TA98; [5]): 94 rev/plate | Rev/plate (Salmonella TA98; [6]): 156 rev/plate | Rev/plate (Salmonella TA98; [7]): 285 rev/plate | Rev/plate (Salmonella TA98; [8]): 412 rev/plate | Rev/plate (Salmonella TA98; [9]): 104/110 | Rev/plate (Salmonella TA98; TA98 +S9, Test 2, 20 µg/plate, zero-dose 43/41/30): 124/134 | Rev/plate (Salmonella TA98; TA98 +S9, Test 2, 40 µg/plate, zero-dose 43/41/30): 276/244 | Rev/plate (Salmonella TA98; TA98 +S9, Test 2, 80 µg/plate, zero-dose 43/41/30): 381/323 | Rev/plate (Salmonella TA98; [10]): 143/142 | Rev/plate (Salmonella TA98; TA98 +S9, Test 3, 20 µg/plate, zero-dose 49/50/50): 193/190 | Rev/plate (Salmonella TA98; TA98 +S9, Test 3, 40 µg/plate, zero-dose 49/50/50): 315/359 | Rev/plate (Salmonella TA98; TA98 +S9, Test 3, 80 µg/plate, zero-dose 49/50/50): 448/459 | Mutagenic potency, Revertants/µg ± S.E., TA98 (Salmonella TA98): 5.6 ± 0.8 rev/µg | Mutagenicity call TA98 (Salmonella TA98): (+) (Called mutagenic (+) based on showing reproducible, dose-related increases in rev/plate that reached or exceeded 2-fold relative to zero-dose controls) | Rev/plate (Salmonella TA100; [11]): 326 rev/plate | Rev/plate (Salmonella TA100; [12]): 554 rev/plate | Rev/plate (Salmonella TA100; [13]): 755 rev/plate | Rev/plate (Salmonella TA100; [14]): 995 rev/plate | Rev/plate (Salmonella TA100; [15]): 992 rev/plate | Rev/plate (Salmonella TA100; [16]): 847 rev/plate | Rev/plate (Salmonella TA100; TA100 +S9, Test 2, 0.5 µg/plate, zero-dose 84/78/80): 80/94 | Rev/plate (Salmonella TA100; [17]): 140/116 | Rev/plate (Salmonella TA100; TA100 +S9, Test 2, 2.5 µg/plate, zero-dose 84/78/80): 268/224 | Rev/plate (Salmonella TA100; [18]): 352/315 | Rev/plate (Salmonella TA100; TA100 +S9, Test 3, 0.5 µg/plate, zero-dose 127/118/125): 147/151 | Rev/plate (Salmonella TA100; [19]): 178/187 | Rev/plate (Salmonella TA100; TA100 +S9, Test 3, 2.5 µg/plate, zero-dose 127/118/125): 347/430 | Rev/plate (Salmonella TA100; [20]): 545/614 | Mutagenic potency, Revertants/µg ± S.E., TA100 (Salmonella TA100): 80.0 ± 13.2 rev/µg | Mutagenicity call TA100 (Salmonella TA100): (+) (Called mutagenic (+) based on showing reproducible, dose-related increases in rev/plate that reached or exceeded 2-fold relative to zero-dose controls) | Rev/plate (Salmonella TA104; TA104 +S9, Test 2, 0.5 µg/plate, zero-dose 276/260/270): 486/465 | Rev/plate (Salmonella TA104; [21]): 213/673 | Rev/plate (Salmonella TA104; TA104 +S9, Test 2, 2.5 µg/plate, zero-dose 276/260/270): 1311/1300 | Rev/plate (Salmonella TA104; [22]): 1723/1755 | Rev/plate (Salmonella TA104; TA104 +S9, Test 3, 0.5 µg/plate, zero-dose 402/395/336): 566/525 | Rev/plate (Salmonella TA104; [23]): 754/785 | Rev/plate (Salmonella TA104; TA104 +S9, Test 3, 2.5 µg/plate, zero-dose 402/395/336): 1235/1287 | Rev/plate (Salmonella TA104; [24]): 1508/1620 | Mutagenic potency, Revertants/µg ± S.E., TA104 (Salmonella TA104; plate-incorporation, +S9): 369 ± 28 rev/µg | Mutagenicity call TA104 (Salmonella TA104; plate-incorporation, +S9): (+) (Called mutagenic (+) based on showing reproducible, dose-related increases in rev/plate that reached or exceeded 2-fold relative to zero-dose controls) | Fold increase in mutant frequency relative to DMSO-treated cells (strain TA100; 2 µg/ml): 2.5 fold | Rev/10^6 survivors (strain TA100; 2 µg/ml): 2.0 Rev/10^6 survivors | Percent survival (strain TA100; 2 µg/ml): 91% | Fold increase in mutant frequency relative to DMSO-treated cells (strain TA100; 5 µg/ml): 2.8 fold | Rev/10^6 survivors (strain TA100; 5 µg/ml): 2.2 Rev/10^6 survivors | Percent survival (strain TA100; 5 µg/ml): 63% | Stable adducts/10^8 nucleotides ± S.E ([1]; TA100, 2 µg/ml): 0.170 ± 0.045 adducts/10^8 nucleotides | Stable adducts/10^8 nucleotides ± S.E ([1]; TA100, 5 µg/ml): 0.750 ± 0.045 adducts/10^8 nucleotides | Abasic sites/10^5 nucleotides ± S.E ([2]; TA100, 2 µg/ml): 2.9 ± 0.23 sites/10^5 nucleotides | Abasic sites/10^5 nucleotides ± S.E ([2]; TA100, 5 µg/ml): 4.7 ± 0.25 sites/10^5 nucleotides

c1ccc2c(c1)ccc1ccc3ccsc3c12 [P[4,3-b]T, Phenanthro[4,3-b]thiophene]
Rev/plate (Salmonella TA98; [3]): 61 rev/plate | Rev/plate (Salmonella TA98; [4]): 137 rev/plate | Rev/plate (Salmonella TA98; [5]): 141 rev/plate | Rev/plate (Salmonella TA98; [6]): 146 rev/plate | Rev/plate (Salmonella TA98; [7]): 158 rev/plate | Rev/plate (Salmonella TA98; [8]): 105 rev/plate | Rev/plate (Salmonella TA98; TA98 +S9, Test 2, 1 µg/plate, zero-dose 43/41/30): 39/49 | Rev/plate (Salmonella TA98; TA98 +S9, Test 2, 2 µg/plate, zero-dose 43/41/30): 41/33 | Rev/plate (Salmonella TA98; TA98 +S9, Test 2, 5 µg/plate, zero-dose 43/41/30): 97/77 | Rev/plate (Salmonella TA98; [9]): 110/79 | Rev/plate (Salmonella TA98; TA98 +S9, Test 3, 1 µg/plate, zero-dose 49/50/50): 93/74 | Rev/plate (Salmonella TA98; TA98 +S9, Test 3, 2 µg/plate, zero-dose 49/50/50): 98/77 | Rev/plate (Salmonella TA98; TA98 +S9, Test 3, 5 µg/plate, zero-dose 49/50/50): 162/166 | Rev/plate (Salmonella TA98; [10]): 194/213 | Mutagenic potency, Revertants/µg ± S.E., TA98 (Salmonella TA98): 13.7 ± 3.3 rev/µg | Mutagenicity call TA98 (Salmonella TA98): (+) (Called mutagenic (+) based on showing reproducible, dose-related increases in rev/plate that reached or exceeded 2-fold relative to zero-dose controls) | Rev/plate (Salmonella TA100; [11]): 172 rev/plate | Rev/plate (Salmonella TA100; [12]): 194 rev/plate | Rev/plate (Salmonella TA100; [13]): 190 rev/plate | Rev/plate (Salmonella TA100; [14]): 125 rev/plate | Rev/plate (Salmonella TA100; [15]): 188 rev/plate | Rev/plate (Salmonella TA100; [16]): 164 rev/plate | Rev/plate (Salmonella TA100; [17]): 80/84 | Rev/plate (Salmonella TA100; TA100 +S9, Test 2, 2 µg/plate, zero-dose 84/78/80): 92/89 | Rev/plate (Salmonella TA100; [18]): 116/108 | Rev/plate (Salmonella TA100; TA100 +S9, Test 2, 10 µg/plate, zero-dose 84/78/80): 119/98 | Rev/plate (Salmonella TA100; [19]): 142/160 | Rev/plate (Salmonella TA100; TA100 +S9, Test 3, 2 µg/plate, zero-dose 127/118/125): 185/164 | Rev/plate (Salmonella TA100; [20]): 218/248 | Rev/plate (Salmonella TA100; TA100 +S9, Test 3, 10 µg/plate, zero-dose 127/118/125): 274/291 | Rev/plate (Salmonella TA100; TA100 +S9, Test 4, 1 µg/plate, zero-dose 112/140/115): 160/156 | Rev/plate (Salmonella TA100; TA100 +S9, Test 4, 2 µg/plate, zero-dose 112/140/115): 164/156 | Rev/plate (Salmonella TA100; TA100 +S9, Test 4, 5 µg/plate, zero-dose 112/140/115): 218/198 | Rev/plate (Salmonella TA100; TA100 +S9, Test 4, 10 µg/plate, zero-dose 112/140/115): 275/234 | Mutagenic potency, Revertants/µg ± S.E., TA100 (Salmonella TA100): 12.8 ± 3.9 rev/µg | Mutagenicity call TA100 (Salmonella TA100): (+) (Called mutagenic (+) based on showing reproducible, dose-related increases in rev/plate that reached or exceeded 2-fold relative to zero-dose controls) | Rev/plate (Salmonella TA104; [21]): 392/313 | Rev/plate (Salmonella TA104; TA104 +S9, Test 2, 2 µg/plate, zero-dose 276/260/270): 414/432 | Rev/plate (Salmonella TA104; [22]): 419/440 | Rev/plate (Salmonella TA104; TA104 +S9, Test 2, 10 µg/plate, zero-dose 276/260/270): 437/473 | Rev/plate (Salmonella TA104; [23]): 457/397 | Rev/plate (Salmonella TA104; TA104 +S9, Test 3, 2 µg/plate, zero-dose 402/395/336): 468/515 | Rev/plate (Salmonella TA104; [24]): 490/505 | Rev/plate (Salmonella TA104; TA104 +S9, Test 3, 10 µg/plate, zero-dose 402/395/336): 489/509 | Rev/plate (Salmonella TA104; TA104 +S9, Test 4, 1 µg/plate, zero-dose 482/455/462): 517/524 | Rev/plate (Salmonella TA104; TA104 +S9, Test 4, 2 µg/plate, zero-dose 482/455/462): 532/540 | Rev/plate (Salmonella TA104; TA104 +S9, Test 4, 5 µg/plate, zero-dose 482/455/462): 540/497 | Rev/plate (Salmonella TA104; TA104 +S9, Test 4, 10 µg/plate, zero-dose 482/455/462): 520/592 | Mutagenic potency, Revertants/µg ± S.E., TA104 (Salmonella TA104; plate-incorporation, +S9): 58.9 ± 7.9 rev/µg

— paper PMC2819846 (Mutation research, 2008)
